# Article PMC11591946, “Exploring the Potential of Biomimetic Peptides in Targeting Fibrillar and Filamentous Alpha-Synuclein—An In Silico and Experimental Approach to Parkinson’s Disease” (Biomimetics, 2024)
# Where no end group is shown, it is not given here.
# How the values were obtained:
# [1] = target: T1, ASyn preformed fibrils (Homo sapiens, UniProt P37840); assay: Thioflavin-T (ThT) assay; format: biochemical; details: 20 μM ASyn preformed fibrils + 20 μM peptide in PBS, 70 μM ThT; for reduction in ThT fluorescence intensity: excitation 440 nm, over the course of 46 h
# T1 construct: purchased StressMarq
# Procedure: Thioflavin T assay was conducted to assess the effect of five peptides (PYYYWKELAQM; PYYYWKDPNGS; EQALMPEGMGLEDPNGS; ELAQMPYYYWKDPNGS; ELAQMPWIWYWKDPNGS) on ASyn preformed fibrils (StressMarq). […] [75]. The samples were prepared by incubating 20 μM of ASyn diluted in PBS buffer with 20 μM of each peptide. To each sample, 70 μM ThT dye diluted in deionized water was added. The prepared solutions were then transferred into quartz cuvettes, and the emission spectra at different time intervals were recorded. Samples were excited at 440 nm, and emission spectra were recorded between 460 nm to 550 nm at a slit of 3 nm.
# [2] = DPPH radical scavenging antioxidant assay; format: biochemical; details: colorimetric DPPH kit; at the highest concentrations (2, 10, 20, 40 µM tested)
# Procedure: To investigate the antioxidant activity of the five peptides (PYYYWKELAQM; PYYYWKDPNGS; EQALMPEGMGLEDPNGS; ELAQMPYYYWKDPNGS; ELAQMPWIWYWKDPNGS), we conducted a colorimetric DPPH (2,2-diphenyl-1-picrylhydrazyl) radical scavenging assay using an antioxidant assay kit (AbCam, USA). In general, the protocol from the assay kit was followed to determine the antioxidant activity. Four different concentrations of each of the peptides were utilized (2 µM, 10 µM, 20 µM, and 40 µM). A standard curve was generated using Trolox, and then the activities of each of the peptides were compared by calculating the inhibition ratio.
Sequence,reduction in ThT fluorescence intensity [1],reduction in ThT fluorescence intensity at 48 h ([1]; at 48 h),DPPH radical scavenging activity in comparison to Trolox (standard) [2]
PYYYWKDPNGS [PYYYWKDPNGS],46.2%,,
ELAQMPYYYWKDPNGS [ELAQMPYYYWKDPNGS],27%,,
EQALMPWIWYWKDPNGS [EQALMPWIWYWKDPNGS],,42%,19%
ELAQMGPEGPMGLEDPNGS [ELAQMGPEGPMGLEDPNGS],32%,,
